{
  "source": "patent US6277583A",
  "about": "“Affinity labeling libraries and applications thereof” (Conjuchem, Inc., priority 1996, dated 2001)",
  "biological_target": "T1, HSA (Homo sapiens, UniProt P02768)",
  "T1 construct": "purchased Sigma A-8673",
  "T1 sequence (P02768 25-609)": "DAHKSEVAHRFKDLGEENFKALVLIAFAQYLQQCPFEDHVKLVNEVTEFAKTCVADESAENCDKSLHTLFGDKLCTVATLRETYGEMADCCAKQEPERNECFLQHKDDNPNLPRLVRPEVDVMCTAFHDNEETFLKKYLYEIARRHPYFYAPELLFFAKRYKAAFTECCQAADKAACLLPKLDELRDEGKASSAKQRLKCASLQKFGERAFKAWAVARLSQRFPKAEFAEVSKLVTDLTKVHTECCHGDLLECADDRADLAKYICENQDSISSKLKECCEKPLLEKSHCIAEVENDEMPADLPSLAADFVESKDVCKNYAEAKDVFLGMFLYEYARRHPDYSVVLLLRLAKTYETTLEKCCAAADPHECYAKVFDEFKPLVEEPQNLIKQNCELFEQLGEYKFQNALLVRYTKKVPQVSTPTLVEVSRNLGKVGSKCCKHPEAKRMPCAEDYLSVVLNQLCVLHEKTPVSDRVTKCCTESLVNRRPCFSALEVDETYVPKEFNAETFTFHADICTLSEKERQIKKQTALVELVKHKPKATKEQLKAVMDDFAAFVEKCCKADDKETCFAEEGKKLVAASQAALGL",
  "assay": "Rates of reaction (kinetics of biotinylation) of library members with HSA",
  "type": "binding",
  "protocol": "The rates of reaction of four members of the library with HSA were determined, and the kinetics describing the biotinylation of HSA by these members of the library is shown in FIG. 2. The curves all show a characteristic early fast phase of reaction followed by a slowing of the reaction at later times. The maximal rate of reaction is determined by chosing the best straight line fit for the early values of the time course.\nMembers of the library differ in their structures from that of the thiophenyl ester of biotin in that a pentapeptide with a C- terminus amide is present and the ester function is spatially distinct because its position is on the amino acid side chain of glutamate.",
  "data": [
    {"smiles": "O=C1NC2CSC(CCCCC(=O)Sc3ccccc3)C2N1", "note": "(centres unmarked) [Thiophenyl Biotin, thiophenyl ester of biotin]", "values": [
      {"measurement": "Rate", "setting": "maximal rate of biotinylation of HSA, best straight line fit of early time course (FIG. 2)", "value": "0.0004-0.002 OD units/min"},
      {"measurement": "Fold Increase over 80 μM thiophenyl biotin", "setting": "rate of reaction with HSA relative to thiophenyl ester of biotin", "value": 1, "unit": "fold"}
    ]}
  ]
}
